Some test systems named below: A549 NSCLC; SR leukemia; HCT-116 colon; DU-145 prostate; NCI-H226 lung; MDA-N; CCRF-CEM leukemia; SN12C renal; UACC-257 melanoma; SF-295 CNS; OVCAR-5 ovarian; TK-10 renal; SF-539 CNS; SW-620 colon; NCI-H23 lung; SK-MEL-28 melanoma.
What all share (experiment): NCI-60 cell line screen, 48 h

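Growth conditions: 96-well plates. Treatment: test compound, 48 hours, 5 concentrations. Analysis: linear interpolation between bracketing concentrations; unreached endpoints set to highest concentration. Definition used: TGI = concentration required for complete inhibition of growth.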

Turning to `CC(C)[C@@H]1CC[C@@H](C)C[C@H]1OC(=O)/C=C1/C2C=CC(O2)C1C(=O)O[C@@H]1C[C@H](C)CC[C@H]1C(C)C` (some centres undefined), the TGI with A549 NSCLC, with SR leukemia, in the experiment with HCT-116 colon, in the experiment on DU-145 prostate, in the experiment with NCI-H226 lung and with MDA-N was more than 100 µM each time. Besides, the TGI in the experiment on CCRF-CEM leukemia, with SN12C renal, in the experiment with UACC-257 melanoma, with SF-295 CNS, in the experiment on OVCAR-5 ovarian and with TK-10 renal was more than 100 µM in each case. The TGI in the experiment on SF-539 CNS, with SW-620 colon, in the experiment on NCI-H23 lung and with SK-MEL-28 melanoma was more than 100 µM in each case.
Regarding `O=C1CSC(/C(=C\c2ccc(Cl)cc2)c2nc3ccccc3[nH]2)=N1`, the TGI with A549 NSCLC came out at 16.4 µM; in the experiment with SR leukemia, 94.4 µM; with HCT-116 colon, 30.4 µM; in the experiment on DU-145 prostate it was 26.2 µM; in the experiment with NCI-H226 lung, 18.2 µM; with MDA-N it was 37.6 µM. For the same molecule, the TGI in the experiment with CCRF-CEM leukemia was more than 75.7 µM; in the experiment with SN12C renal it was 34.2 µM; in the experiment with UACC-257 melanoma it was 34.7 µM; in the experiment with SF-295 CNS, 22.8 µM; in the experiment with OVCAR-5 ovarian, 33.5 µM; in the experiment with TK-10 renal, 24.8 µM. Moreover, the TGI turned out to be 2.06 µM in the experiment on SF-539 CNS, 35.6 µM in the experiment on SW-620 colon, 30.7 µM in the experiment on NCI-H23 lung and 32.6 µM in the experiment on SK-MEL-28 melanoma.
Turning to `COc1ccc2cc1Oc1ccc(cc1)C(Sc1ccccc1)CCOC(=O)CC2` (centres undefined), the TGI in the experiment on A549 NSCLC, in the experiment with SR leukemia, with HCT-116 colon, in the experiment on DU-145 prostate, with NCI-H226 lung and with MDA-N was more than 100 µM each time. Moreover, the TGI in the experiment on CCRF-CEM leukemia, with SN12C renal, in the experiment with UACC-257 melanoma, in the experiment with SF-295 CNS, in the experiment on OVCAR-5 ovarian and in the experiment with TK-10 renal was more than 100 µM in each case. Also, the TGI in the experiment with SF-539 CNS, with SW-620 colon, in the experiment with NCI-H23 lung and in the experiment on SK-MEL-28 melanoma was more than 100 µM in each case.
In the case of `Cn1ccn2c3nc4ccccc4nc3c(=O)c(C#N)c12`, the TGI in the experiment on A549 NSCLC, in the experiment on SR leukemia, in the experiment on HCT-116 colon, with DU-145 prostate, in the experiment with NCI-H226 lung and in the experiment with MDA-N was more than 100 µM throughout. The TGI in the experiment with CCRF-CEM leukemia, in the experiment with SN12C renal, with UACC-257 melanoma, in the experiment with SF-295 CNS, in the experiment on OVCAR-5 ovarian and in the experiment on TK-10 renal was more than 100 µM throughout. For the same molecule, the TGI in the experiment on SF-539 CNS, in the experiment with SW-620 colon, in the experiment with NCI-H23 lung and in the experiment on SK-MEL-28 melanoma was more than 100 µM each time.
As to `CCOC(=O)N1CCN(c2ccc3c(C)cc(C)nc3n2)CC1`, the TGI in the experiment on A549 NSCLC, in the experiment with SR leukemia, with HCT-116 colon, in the experiment with DU-145 prostate, in the experiment on NCI-H226 lung and in the experiment with MDA-N was more than 100 µM throughout. Also, the TGI in the experiment on CCRF-CEM leukemia, in the experiment with SN12C renal, in the experiment on UACC-257 melanoma, in the experiment on SF-295 CNS, with OVCAR-5 ovarian and in the experiment with TK-10 renal was more than 100 µM in each case. Besides, the TGI in the experiment on SF-539 CNS, in the experiment on SW-620 colon, with NCI-H23 lung and in the experiment with SK-MEL-28 melanoma was more than 100 µM throughout.
`C=CC1ON(Cc2ccccc2)CCc2cc(OC)c(OC)cc21` (centres undefined): the TGI was more than 100 µM in the experiment on A549 NSCLC; more than 100 µM with SR leukemia; more than 100 µM with HCT-116 colon; more than 100 µM in the experiment with DU-145 prostate; more than 100 µM with NCI-H226 lung; 89.5 µM with MDA-N. In addition, the TGI in the experiment with CCRF-CEM leukemia, with SN12C renal, in the experiment on UACC-257 melanoma, in the experiment with SF-295 CNS, in the experiment with OVCAR-5 ovarian and with TK-10 renal was more than 100 µM throughout. The TGI in the experiment with SF-539 CNS, with SW-620 colon, in the experiment on NCI-H23 lung and with SK-MEL-28 melanoma was more than 100 µM throughout.
For the molecule `C=CCOc1ccccc1N=N/C(C#N)=N\Nc1ccccc1OCC=C`, the TGI in the experiment on A549 NSCLC was more than 100 µM; in the experiment with SR leukemia, more than 100 µM; in the experiment on HCT-116 colon it was more than 100 µM; in the experiment with DU-145 prostate, more than 100 µM; with NCI-H226 lung, more than 100 µM; in the experiment on MDA-N, 94.7 µM. Moreover, the TGI in the experiment with CCRF-CEM leukemia, in the experiment with SN12C renal, with UACC-257 melanoma, with SF-295 CNS, with OVCAR-5 ovarian and with TK-10 renal was more than 100 µM each time. Also, the TGI in the experiment on SF-539 CNS, with SW-620 colon, in the experiment with NCI-H23 lung and in the experiment on SK-MEL-28 melanoma was more than 100 µM throughout.
Consider `O=C(/C=C/c1ccsc1)c1ccco1`, for which the TGI was 11.7 µM in the experiment on A549 NSCLC; 9.14 µM in the experiment on SR leukemia; 16.6 µM in the experiment with HCT-116 colon; 26.4 µM in the experiment on DU-145 prostate; more than 63.6 µM with NCI-H226 lung; 25.2 µM in the experiment with MDA-N. The TGI in the experiment on CCRF-CEM leukemia turned out to be 22.9 µM; with SN12C renal, 28.6 µM; in the experiment on UACC-257 melanoma, 38.6 µM; with SF-295 CNS, 27.2 µM; with OVCAR-5 ovarian, 34.9 µM; in the experiment with TK-10 renal it was 50.5 µM. Moreover, the TGI was 32.5 µM in the experiment on SF-539 CNS, 22 µM in the experiment on SW-620 colon, 30.9 µM in the experiment with NCI-H23 lung and 25.4 µM with SK-MEL-28 melanoma.
Regarding `C=CCOCn1cnc2c(N)ncnc21`, the TGI in the experiment on A549 NSCLC, in the experiment with SR leukemia, with HCT-116 colon, in the experiment on DU-145 prostate, in the experiment with NCI-H226 lung and in the experiment on MDA-N was more than 100 µM throughout. For the same molecule, the TGI in the experiment on CCRF-CEM leukemia, in the experiment on SN12C renal, with UACC-257 melanoma, with SF-295 CNS, with OVCAR-5 ovarian and in the experiment on TK-10 renal was more than 100 µM each time. For the same molecule, the TGI in the experiment on SF-539 CNS, with SW-620 colon, in the experiment on NCI-H23 lung and with SK-MEL-28 melanoma was more than 100 µM throughout.

Values taken from PubChem BioAssay (NCI).
